Assay results as given in patent US20210393807A1, “PHOTOACOUSTIC VOLTAGE-SENSITIVE DYES FOR IN VIVO IMAGING” (The Johns Hopkins University, priority 2016, published 2021).
Several values for one entry are separate records, joined by “and”; a condition that tells them apart may be missing. Equal entries are not always repeated.

What was measured:
[1] = system: rat brain; test: Microdialysis of extracellular glutamate during NMDA infusion; assay type: in vivo, Sprague Dawley rats; details: NMDA infusion phase, 0.3-mM NMDA via microdialysis probe; baseline phase 0.557 μM
Excerpt: (§1) 3.1.1 Animal preparation. For the in vivo experiments, 8-9-week-old male Sprague Dawley rats weighing 275-390 g were used (Charles Rivers Laboratory, Inc., MA, United States). The use of animals for the proposed experimental protocol was approved by the Institutional Research Board Committee of Johns Hopkins Medical Institute (RA16M225). The hair was shaved from the scalp of each rat for improved optical/acoustic coupling for transcranial PA recording. The head of the anesthetized rat was fixed to a stable position using a standard stereotaxic device. This fixation procedure was required to prevent any unpredictable movement during PA recording of neural activities.
3.1.2 Microdialysis setup. The microdialysis probe consists of a shaft with a semipermeable hollow membrane tip, which is connected to inlet and outlet tubing. The extracellular fluid samples were continuously acquired before and after the infusion of 0.3-mM NMDA through the inlet of the microdialysis probe (FIG. 22A). Each acquisition of extracellular fluid sample took 20 min with 2 μL/min flow rate. From the samples, the change of glutamate concentration was measured.
3.1.3 In vivo experimental protocol. […] PA data acquisition was continuously performed for 40 min to be correlated with the glutamate concentration change measured by microdialysis with 20-min intervals. […]

[2] = system: rat brain; test: PA recording of neural activity index during NMDA infusion; assay type: in vivo, Sprague Dawley rats
Excerpt: as §1
3.1.3 In vivo experimental protocol. The in vivo protocol was designed to have two different phases: baseline and NMDA infusion (FIG. 22B). PA data acquisition was continuously performed for 40 min to be correlated with the glutamate concentration change measured by microdialysis with 20-min intervals. The baseline phase was designed to confirm its stable neural activity before the NMDA infusion. […]

## CN[C@H](CC(=O)O)C(=O)O [NMDA]
[1]
  extracellular glutamate concentration: 0.000643 mM and 0.000648 mM
[2]; 30 min of NMDA infusion, after VSD and Lexiscan administration
  increase of neural activity index estimated by PA recording: up to 3.27 times
[2]; from the start of NMDA infusion
  time at which the increase of index is saturated: 10 to 15 min
